The record followed here is PubChem BioAssay (NCI).

Some test systems named below: CCRF-CEM leukemia; COLO 205 colon; HOP-92 NSCLC; OVCAR-5 ovarian; SK-OV-3 ovarian; UO-31 renal; LOX IMVI melanoma; TK-10 renal.
Holding throughout (assay): NCI anticancer screen, dose series, 48 h

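A five-concentration, 48-hour dose response in 96-well plates underlies each endpoint, interpolated linearly between surrounding concentrations. At the GI50, growth is halved. TGI denotes the concentration required for complete inhibition of growth.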 Bounds are passed on as bounds.

As for `N#C/C(=C\c1cn(-c2ccccc2)c2ccccc12)C(=O)O`, the GI50 was 99 µM in the assay with CCRF-CEM leukemia; 85.9 µM in the assay on COLO 205 colon; 33.9 µM with HOP-92 NSCLC; 95.5 µM in the assay on OVCAR-5 ovarian; 71.4 µM with SK-OV-3 ovarian; 23.8 µM in the assay on UO-31 renal. The GI50 in the assay with LOX IMVI melanoma is 3.71 µM. The TGI with CCRF-CEM leukemia, in the assay on COLO 205 colon, in the assay with HOP-92 NSCLC, with OVCAR-5 ovarian, in the assay with SK-OV-3 ovarian and in the assay with UO-31 renal was greater than 100 µM each time. Further, the TGI in the assay on LOX IMVI melanoma is greater than 100 µM.

For the compound `COc1cc2c(/C=C3/C(=O)Nc4ccccc43)c(Cl)n(Cc3ccccc3)c2cc1C`, the GI50 in the assay with CCRF-CEM leukemia is 29.1 µM; in the assay with TK-10 renal it was greater than 100 µM; in the assay with COLO 205 colon, 31.8 µM; in the assay with HOP-92 NSCLC, greater than 100 µM; in the assay on OVCAR-5 ovarian, greater than 100 µM; with SK-OV-3 ovarian, greater than 100 µM. Further, the GI50 in the assay on UO-31 renal was 83.4 µM; with LOX IMVI melanoma it was greater than 100 µM. The TGI in the assay with CCRF-CEM leukemia, with TK-10 renal, with COLO 205 colon, in the assay on HOP-92 NSCLC, in the assay with OVCAR-5 ovarian and in the assay with SK-OV-3 ovarian was greater than 100 µM in each case. In addition, the TGI in the assay with UO-31 renal and in the assay with LOX IMVI melanoma was greater than 100 µM throughout.

Regarding `COc1ccc(NC2=C(Sc3nc(C)cc(C)n3)C(=O)N(Cc3ccccc3)C2=O)cc1Cl`, the GI50 in the assay on CCRF-CEM leukemia was 13.9 µM; with TK-10 renal, greater than 160 µM; in the assay on COLO 205 colon it was greater than 160 µM; with HOP-92 NSCLC it was 29.4 µM; with OVCAR-5 ovarian, greater than 160 µM; in the assay with SK-OV-3 ovarian it was greater than 160 µM. Also, the GI50 with UO-31 renal and with LOX IMVI melanoma was greater than 160 µM in each case. Also, the TGI in the assay on CCRF-CEM leukemia, in the assay with TK-10 renal, with COLO 205 colon, with HOP-92 NSCLC, with OVCAR-5 ovarian and with SK-OV-3 ovarian was greater than 160 µM in each case. Also, the TGI in the assay on UO-31 renal and in the assay on LOX IMVI melanoma was greater than 160 µM throughout.

Turning to `COc1ccc(C2=NNC(c3ccc(-c4ccc(OC)cc4[N+](=O)[O-])o3)C2)cc1` (stereo unspecified), the GI50 in the assay on CCRF-CEM leukemia was 70 µM; in the assay on TK-10 renal it was 14.8 µM; in the assay with COLO 205 colon, greater than 100 µM; in the assay on HOP-92 NSCLC it was 15.1 µM; with OVCAR-5 ovarian it was greater than 100 µM; with SK-OV-3 ovarian, 49.7 µM. The GI50 was greater than 100 µM in the assay with UO-31 renal and 41.9 µM with LOX IMVI melanoma. The TGI in the assay with CCRF-CEM leukemia was greater than 100 µM; in the assay on TK-10 renal, 46.3 µM; with COLO 205 colon, greater than 100 µM; in the assay with HOP-92 NSCLC it was 81 µM; in the assay with OVCAR-5 ovarian, greater than 100 µM; in the assay with SK-OV-3 ovarian, greater than 100 µM. Besides, the TGI in the assay with UO-31 renal and with LOX IMVI melanoma was greater than 100 µM throughout.

For `O=C(CNC(=O)c1cccc2ccccc12)Nc1ccccc1Oc1cccc(O)c1`, the GI50 in the assay with CCRF-CEM leukemia is 4.17 µM; in the assay with TK-10 renal it was greater than 25 µM; in the assay on COLO 205 colon, 14.7 µM; in the assay with HOP-92 NSCLC, greater than 25 µM; in the assay on OVCAR-5 ovarian, greater than 25 µM; in the assay on SK-OV-3 ovarian, 13 µM. Also, the GI50 with UO-31 renal is 16.5 µM; in the assay with LOX IMVI melanoma it was 15 µM. Further, the TGI in the assay with CCRF-CEM leukemia, with TK-10 renal, in the assay on COLO 205 colon, in the assay with HOP-92 NSCLC, in the assay with OVCAR-5 ovarian and in the assay on SK-OV-3 ovarian was greater than 25 µM throughout. In addition, the TGI with UO-31 renal and in the assay on LOX IMVI melanoma was greater than 25 µM in each case.

For the compound `COc1nccc(-c2c(-c3ccc(F)cc3)ncn2C2CCC(O)CC2)n1` (stereo unspecified), the GI50 in the assay on CCRF-CEM leukemia is greater than 84.5 µM; in the assay on TK-10 renal it was 39.4 µM; in the assay with COLO 205 colon it was 99.6 µM; in the assay on HOP-92 NSCLC, greater than 100 µM; with OVCAR-5 ovarian, 43.8 µM; with SK-OV-3 ovarian it was 57.3 µM. Further, the GI50 in the assay with UO-31 renal is 10.1 µM; in the assay on LOX IMVI melanoma, greater than 92.9 µM. Further, the TGI in the assay with CCRF-CEM leukemia, in the assay with TK-10 renal, in the assay with COLO 205 colon, in the assay with HOP-92 NSCLC, in the assay on OVCAR-5 ovarian and in the assay on SK-OV-3 ovarian was greater than 100 µM each time. The TGI in the assay with UO-31 renal and with LOX IMVI melanoma was greater than 100 µM each time.

In the case of `CC(=O)OCC(=O)[C@@]1(O)[C@H](C)C[C@H]2[C@@H]3C=C(C)C4=Cc5c(cnn5-c5ccc(F)cc5)C[C@]4(C)[C@H]3[C@@H](O)C[C@@]21C`, the GI50 with CCRF-CEM leukemia is less than 0.0158 µM; with TK-10 renal, 1.91 µM; in the assay with COLO 205 colon, 1.74 µM; with OVCAR-5 ovarian, 1.41 µM; in the assay on SK-OV-3 ovarian it was 1.29 µM; in the assay on UO-31 renal it was 4.31 µM. Moreover, the GI50 in the assay with LOX IMVI melanoma is 1.66 µM. The TGI worked out at 6.03 µM in the assay on TK-10 renal; 3.34 µM in the assay on COLO 205 colon; 5.87 µM in the assay with HOP-92 NSCLC; 4.57 µM in the assay on OVCAR-5 ovarian; 4.57 µM in the assay with SK-OV-3 ovarian; 15.6 µM with UO-31 renal. Besides, in the assay on LOX IMVI melanoma, the TGI is 3.8 µM.

On to `Nc1nc(-n2cccn2)nc(-n2cccn2)c1Br`, for which the GI50 in the assay on CCRF-CEM leukemia, in the assay with COLO 205 colon, with HOP-92 NSCLC, with OVCAR-5 ovarian, with SK-OV-3 ovarian and in the assay on UO-31 renal was greater than 100 µM throughout. Further, the GI50 with LOX IMVI melanoma is greater than 100 µM. The TGI in the assay with CCRF-CEM leukemia, in the assay with COLO 205 colon, with HOP-92 NSCLC, in the assay on OVCAR-5 ovarian, in the assay on SK-OV-3 ovarian and with UO-31 renal was greater than 100 µM throughout. Moreover, the TGI in the assay with LOX IMVI melanoma is greater than 100 µM.

As for `CCOC(=O)c1sc(=S)c2c(C(=O)c3ccccc3)c(C(=O)c3ccccc3)sc2c1C(=O)OCC`, the GI50 with CCRF-CEM leukemia is 2.1 µM; in the assay on TK-10 renal, 3.17 µM; in the assay on COLO 205 colon, 15.8 µM; in the assay with HOP-92 NSCLC, 4.74 µM; in the assay on SK-OV-3 ovarian, 37.4 µM; in the assay on UO-31 renal, 5.12 µM. Besides, the GI50 in the assay on LOX IMVI melanoma was 5.08 µM. Further, the TGI in the assay on CCRF-CEM leukemia is 5.99 µM; in the assay on TK-10 renal, 63.5 µM; in the assay on COLO 205 colon, 45.6 µM; in the assay with HOP-92 NSCLC, 90.1 µM; in the assay on SK-OV-3 ovarian it was greater than 100 µM; in the assay with UO-31 renal, greater than 100 µM. The TGI with LOX IMVI melanoma is greater than 100 µM.
